Source: patent US7256012B2, “Fluorogenic protease substrates based on dye-dimerization” (3M Innovative Properties Company, priority 1997, dated 2007)

Test system: Vibrio parahaemolyticus
Assay: Use of fluorogenic protease substrate to detect Vibrio parahaemolyticus (cleavage by trypsin-like enzyme)
Type: cell-based
Conditions: Vibrio parahaemolyticus cells, 1 mM EDTA, 50 mM phosphate buffer pH 7.2, incubated overnight; with vs without cells
Description: Vibrio parahaemolyticus used in these experiments was a quality control strain for the Transport Swab System of Becton Dickinson Microbiology Systems (Cockeysville, Md.). It was purchased from American Tissue Culture Collection (ATCC accession no. 49398). Cells were grown at 37° C. in nutrient broth with 3 percent sodium chloride. Ten ml of overnight culture was centrifuged. Broth was disposed and 3 ml of assay buffer added (1 mM EDTA, 50 mM phosphate buffer at pH 7.2) containing 50 μl of dual labeled conjugate of formula I, 1000 dilution (see Example 1, procedure for making labeled peptide). To ensure complete cleavage the reaction mixture was incubated overnight. Fluorescence intensity of cuvettes with and without cells was measured, (tracings C and D, respectively).

TMR-Val-Pro-Arg-Gly-Lys-TMR (XPRGX; not fully specified; TMR dye at both ends) [T-VPRGK-T]
change in fluorescence on cleavage by the trypsin-like enzyme: increase in fluorescence
